Measured values: US20030195168A1, “Therapeutic agents - III” (priority 2000, published 2003)

Experiments:
PKCα = target: T1, PKCα (Homo sapiens, UniProt P17252); format: cell-based; conditions: HeLa
T1 construct: host or cells: HeLa cells
Procedure: (§1) Five EGFP-PKC isoforms (Clontech) were available for this experiment, enabling the screening of the three predominant PKC families (i.e. classical, novel and atypical PKCs). The members of the various PKC families are α, β, and γ (classical), θ (novel) and ζ (atypical).
(§2) HeLa cells were plated out in a 24-well plate containing coverslips and transfected with PKC isoforms fused to EGFP, using a commercially available effectine-transfection kit (QIAGEN, Pty. Ltd.). Cells were exposed to the transfection reagents for 16-24 hr. Subsequently, transfected cells were treated for one hour with TPA (100 ng/mL), bryostatin-1 (5 pg/mL), PEP003 (2.25 μg/mL; 5 μM) or PEP005 ([…]) 1.5 μM). Following treatment, cells were fixed on coverslips and mounted on glass slides. The slides were subsequently examined visually by fluorescence microscopy, photographed, and over 150 cells were counted/treatment/PKC isoform. Counted cells were classified according to the localisation of the PKC-EGFP fluorescence as either cytoplasmic or plasma membrane using ImagePro™ 4.1 (FIG. 5). […] The number of these cells was also counted.

[1] = tested on: EBV in Burkitt's lymphoma cell lines (MutuI and BL74); test: EBV activation in Burkitt's lymphoma cell lines (VCA western blot); format: cell-based
Procedure: To ensure that equal amounts of each sample were analyzed, the gels were stained with Coomassie blue and the loadings were adjusted to make them equal. […] Next the PEP003 and PEP004 were assayed on two Burkitt's lymphoma cell lines and an LCL. This time only concentrations of 10^−5 and 10^−7 were used.

[2] = tested on: peripheral blood mononuclear cells (PBMCs); test: Phagocytosis with fluorescent beads; format: cell-based; conditions: whole heparinized blood, 30 min at 37° C.
Procedure: Phagocytosis by peripheral blood mononuclear cells (PBMCs) was assayed (Steinkamp et al., 1982) using 1 μm Fluoresbrite™ yellow-green fluorescent latex spheres (Polysciences, Inc., Warrington, Pa.). A sample of whole, heparinized blood was treated with drug and 5×10E7 fluorescent latex beads in 10 μL of PBS added per mL of suspension. Cells were incubated and maintained in suspension for 30 min by means of a shaker platform at 37° C. The stirnulated and non-stimulated samples were then lysed to isolate PBMCs. The PBMCs were run on the flow cytometer measuring FITC (excitation at 488 nm, emission at 525±20 nm), gated for fluorescence (phagocytosed spheres) and light scatter (cell size).

[3] = tested on: Human peripheral blood mononuclear cells (PBMC); test: Phagocytic activity of PBMC, nitroblue tetrazolium uptake; format: cell-based; conditions: 100 ng/mL; 20 min; controls <2%
Procedure: Human peripheral blood mononuclear cells (PBMC) prepared by standard Ficoll separation comprise approximately 5% monocytes. PBMC were incubated with dihydroethidium, a reduced form of the dye which becomes fluorescent when oxidized by a respiratory burst, then treated in 10% FCS-RPMI 1640 at 37° C. for 15 min with crude E. peplus extract diluted 1/1000 or 100 ng/mL TPA and analyzed by flow cytometry using conventional methods (Handbook of Flow Cytometry Methods, p. 151) The mean channel numbers for fluorescence were 618 (controls) and 818 (E. peplus extract diluted 1/1000). […] Phagocytic activity was determined by a conventional method (Hudson and Hay, Practical Immunology, 3rd edition, p. 74). […] The average of three fields gave figures of <2% (controls), 10% (TPA) and 8.7% (E. peplus sap) cells stained blue.

rat brain PKC = test: PepTag non-radioactive PKC kinase activity assay; conditions: FIG. 1; TPA 100-0.01 ng/ml; ether extract final dilution 1 in 5; aqueous layer and crude sap diluted 1/25
Procedure: The kinase activity of rat brain PKC (Promega) was determined using the Peptag™ Non-Radioactive Protein Kinase Kit (Promega). Using agarose gel electrophoresis the technique visualises the opposing electrostatic charge of a fluorescently labeled peptide ([sequence]) compared to the phosphorylated version of the same peptide.
The reaction mixture was separated by gel electrophoresis, showing migration of the unreacted substrate (a) to the anode (top), and the product (b), which is more negatively charged because of phosphorylation by PKC, moving towards the cathode (bottom).

PKCβ = target: T2, PKCβ (Homo sapiens, UniProt P05771); test: EGFP-PKC isoform translocation in HeLa cells; format: cell-based
T2 construct: host or cells: HeLa cells
Procedure: as §1
as §2, with “counted. Results are presented as an average and standard deviation of percentages of cells (Table 1).” for “counted.”

PKCζ = target: T3, PKCζ (Homo sapiens, UniProt Q05513); test: EGFP-PKC isoform translocation in HeLa cells; format: cell-based; conditions: one hour, TPA 100 ng/mL, bryostatin-1 5 pg/mL, PEP003 2.25 μg/mL (5 μM), PEP005 670 μg/mL (1.5 μM)
T3 construct: host or cells: HeLa cells
T3 sequence (Q05513 1-592): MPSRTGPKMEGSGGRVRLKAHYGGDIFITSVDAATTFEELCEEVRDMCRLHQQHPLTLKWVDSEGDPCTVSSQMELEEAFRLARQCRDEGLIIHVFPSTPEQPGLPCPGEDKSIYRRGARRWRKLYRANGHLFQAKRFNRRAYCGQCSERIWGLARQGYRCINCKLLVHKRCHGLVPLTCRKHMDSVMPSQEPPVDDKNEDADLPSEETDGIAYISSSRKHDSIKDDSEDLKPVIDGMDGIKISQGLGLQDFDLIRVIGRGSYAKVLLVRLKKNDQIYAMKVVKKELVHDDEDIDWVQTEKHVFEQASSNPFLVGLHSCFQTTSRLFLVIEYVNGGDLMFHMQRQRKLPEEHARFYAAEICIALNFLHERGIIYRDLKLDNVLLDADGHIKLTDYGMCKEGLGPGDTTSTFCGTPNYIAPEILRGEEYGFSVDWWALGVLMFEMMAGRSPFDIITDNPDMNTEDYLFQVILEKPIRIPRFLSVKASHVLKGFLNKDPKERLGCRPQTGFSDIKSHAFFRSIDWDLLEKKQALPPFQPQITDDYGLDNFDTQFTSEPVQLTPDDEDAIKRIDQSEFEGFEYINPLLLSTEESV
Procedure: as §1
as §2, with “counted. Results are presented as an average and standard deviation of percentages of cells (Table 1).” for “counted.”

PKCθ = target: T4, PKCθ (Homo sapiens, UniProt Q04759); test: EGFP-PKC isoform translocation in HeLa cells; format: cell-based; conditions: one hour, TPA 100 ng/mL, bryostatin-1 5 pg/mL, PEP003 2.25 μg/mL (5 μM), PEP005 670 μg/mL (1.5 μM)
T4 construct: host or cells: HeLa cells
Procedure: as §1
as §2, with “counted. Results are presented as an average and standard deviation of percentages of cells (Table 1).” for “counted.”

PKCγ = target: T5, PKCγ (Homo sapiens, UniProt P05129); test: EGFP-PKC isoform translocation in HeLa cells; format: cell-based
T5 construct: host or cells: HeLa cells
Procedure: as §1
as §2, with “counted. Results are presented as an average and standard deviation of percentages of cells (Table 1).” for “counted.”

[4] = one hour, TPA 100 ng/mL, bryostatin-1 5 pg/mL, PEP003 2.25 μg/mL (5 μM), PEP005 670 μg/mL (1.5 μM)

T2 sequence (P05771 whole entry, species assumed, canonical isoform): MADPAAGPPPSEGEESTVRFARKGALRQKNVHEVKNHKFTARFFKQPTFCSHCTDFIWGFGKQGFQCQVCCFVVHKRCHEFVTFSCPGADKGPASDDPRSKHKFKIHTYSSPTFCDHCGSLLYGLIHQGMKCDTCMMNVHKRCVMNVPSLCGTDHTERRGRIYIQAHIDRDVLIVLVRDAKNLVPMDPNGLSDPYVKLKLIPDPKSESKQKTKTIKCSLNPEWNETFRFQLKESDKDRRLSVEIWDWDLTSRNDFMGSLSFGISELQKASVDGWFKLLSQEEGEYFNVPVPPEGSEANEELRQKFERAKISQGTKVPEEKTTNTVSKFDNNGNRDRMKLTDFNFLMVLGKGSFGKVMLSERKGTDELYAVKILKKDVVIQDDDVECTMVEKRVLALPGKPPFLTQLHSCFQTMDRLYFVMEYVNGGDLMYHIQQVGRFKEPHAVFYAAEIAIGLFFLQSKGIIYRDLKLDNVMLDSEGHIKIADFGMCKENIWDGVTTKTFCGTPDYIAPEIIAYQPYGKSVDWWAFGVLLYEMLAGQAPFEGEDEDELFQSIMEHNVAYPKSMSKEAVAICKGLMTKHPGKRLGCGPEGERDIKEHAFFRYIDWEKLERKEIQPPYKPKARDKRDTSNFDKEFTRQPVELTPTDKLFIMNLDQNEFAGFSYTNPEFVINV
T4 sequence (Q04759 whole entry, canonical isoform): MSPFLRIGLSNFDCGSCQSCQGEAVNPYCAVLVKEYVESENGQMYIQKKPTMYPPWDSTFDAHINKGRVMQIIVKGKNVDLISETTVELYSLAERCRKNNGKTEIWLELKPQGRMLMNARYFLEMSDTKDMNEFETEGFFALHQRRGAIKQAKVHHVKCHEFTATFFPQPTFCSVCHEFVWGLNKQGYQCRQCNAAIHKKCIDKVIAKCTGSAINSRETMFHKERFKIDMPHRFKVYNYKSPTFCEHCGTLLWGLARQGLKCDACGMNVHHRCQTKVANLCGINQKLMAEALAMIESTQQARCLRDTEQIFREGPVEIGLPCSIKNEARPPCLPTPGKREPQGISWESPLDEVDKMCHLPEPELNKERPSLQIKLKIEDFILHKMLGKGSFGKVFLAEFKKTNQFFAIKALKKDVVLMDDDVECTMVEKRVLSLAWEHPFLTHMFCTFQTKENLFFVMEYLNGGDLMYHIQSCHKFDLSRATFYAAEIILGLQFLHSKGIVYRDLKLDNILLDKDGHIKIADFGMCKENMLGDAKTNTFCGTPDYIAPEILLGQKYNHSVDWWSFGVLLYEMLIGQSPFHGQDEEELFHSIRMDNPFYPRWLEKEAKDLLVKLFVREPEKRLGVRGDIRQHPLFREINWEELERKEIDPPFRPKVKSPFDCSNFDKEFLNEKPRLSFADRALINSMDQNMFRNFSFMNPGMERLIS

CCCCCCCCCCCCCC(=O)O[C@@H]1[C@@H](C)[C@@]2(O)[C@@H](C=C(CO)C[C@]3(O)C(=O)C(C)=C[C@@H]23)C2C(C)(C)[C@@]21OC(C)=O (single isomer, unassigned) [TPA]
number of PKCα transfected cells displaying Golgi-like fluorescence (PKCα; one hour treatment): increase in the number of cells displaying Golgi-like fluorescence | translocation of PKCα to the plasma membrane (PKCα; one hour, TPA 100 ng/mL, bryostatin-1 5 pg/mL, PEP003 2.25 μg/mL (5 μM)): translocated from the cytoplasm to the plasma membrane | induction of VCA in MutuI cells [1]: TPA did not | stimulation of phagocytosis of fluorescent latex beads [2]: stimulate phagocytosis in PBMCs | cells stained blue (NBT) [3]: 10% | activation of PKC (phosphorylation of fluorescent PepTag substrate) (rat brain PKC): showed activation of PKC | number of PKCβ transfected cells with Golgi-like fluorescence (PKCβ; one hour treatment): increase in Golgi-Tike fluorescence | translocation of PKCβ to the plasma membrane (PKCβ; [4]): translocated from the cytoplasm to the plasma membrane | translocation of PKCζ (PKCζ): fail to induce translocation | translocation of PKCθ (PKCθ): translocated | number of PKCγ transfected cells displaying Golgi-like fluorescence (PKCγ; one hour treatment): increase in the number of cells displaying Golgi-like fluorescence | translocation of PKCγ to the plasma membrane (PKCγ; [4]): translocated from the cytoplasm to the plasma membrane
